Assay: refractive index (Na D-line) (dimensionless); xn = mol fraction of the nth substance listed
Details: 100 kPa, Liquid, Standard Abbe refractometry

OCCO [1,2-ethanediol] + O
refractive index
Details	x2 = 0	x2 = 0.1593	x2 = 0.2669	x2 = 0.3496	x2 = 0.4449	x2 = 0.5563	x2 = 0.6518	x2 = 0.7482	x2 = 0.8444
288.15 K	1.432	1.4278	1.4239	1.4202	1.4152	1.408	1.3996	1.3881	1.3724
293.15 K	1.4306	1.4263	1.4225	1.4188	1.4138	1.4067	1.3984	1.387	1.3714
298.15 K	1.4294	1.4251	1.4212	1.4176	1.4126	1.4055	1.3973	1.386	1.3705
303.15 K	1.4282	1.4239	1.42	1.4163	1.4114	1.4043	1.3961	1.3849	1.3696
308.15 K	1.4269	1.4225	1.4187	1.415	1.4102	1.4031	1.3949	1.3838	1.3687
313.15 K	1.4257	1.4213	1.4174	1.4138	1.409	1.4019	1.3938	1.3827	1.3677
318.15 K	1.4244	1.42	1.4161	1.4125	1.4077	1.4006	1.3926	1.3816	1.3668

OCCCCO [1,4-butanediol] + O
refractive index
Details	x2 = 0	x2 = 0.152	x2 = 0.2513	x2 = 0.3534	x2 = 0.4482	x2 = 0.5515	x2 = 0.6527	x2 = 0.7501	x2 = 0.8492	x2 = 0.9488
288.15 K	1.447	1.4441	1.4413	1.4376	1.4332	1.4277	1.4203	1.4097	1.3913	1.3596
293.15 K	1.4455	1.4425	1.4397	1.436	1.4317	1.4262	1.4188	1.4082	1.39	1.3586
298.15 K	1.4441	1.4411	1.4383	1.4346	1.4304	1.4247	1.4174	1.4069	1.3888	1.3577
303.15 K	1.4426	1.4395	1.4368	1.4331	1.4289	1.4232	1.416	1.4056	1.3876	1.3569
308.15 K	1.4412	1.4381	1.4353	1.4316	1.4274	1.4219	1.4147	1.4044	1.3865	1.356
313.15 K	1.4398	1.4367	1.4339	1.4302	1.426	1.4205	1.4134	1.4031	1.3853	1.3552
318.15 K	1.4384	1.4352	1.4324	1.4288	1.4246	1.4191	1.412	1.4018	1.3842	1.3543

From the NIST ThermoML archive (doi:10.1021/acs.jced.6b00526)
